Legend:
[1] = target: T1, hA3G degradation mediated by HIV-1 Vif (UniProt P69723+Q9HC16); assay: Screening experiment for up-regulation activity to hA3G (YFP-fused hA3G co-expressed with HIV-1 Vif, fluorescence); assay type: cell-based, human; conditions: YFP fluorescence of cells co-expressing Vif and hA3G-YFP; excitation 485 nm, detection 520 nm; averages of duplicates
T1 construct: expressed in transfected cells
Source text: Based on the advances making research on the hA3G degradation mediated by HIV-1 Vif, this invention establishes a high throughput anti-HIV-1 drug screening model using hA3G degradation mediated by HIV-1 Vif as target, to screen small molecule active compounds capable of inhibiting this degradation process. The function principle of this model is that HIV-1 Vif protein and hA3G fused yellow fluorescent protein (YFP) co-expressed in the cells, then the intracellular fluorescence intensity (at […]) decreases owing to the degradation of hA3G caused by Vif and subsequent degradation of YEP fused on hA3G. By means of measuring the change of fluorescent intensity, the influence of the screened compounds on the degradation of hA3G caused by Vif can quantitatively be analyzed. Simultaneously, to differentiate the non-specific inhibitory effect of diverse ubiquitin degradation route in the samples, this invention establishes a recheck model based on the detection of P53 degradation caused by the product of adenovirus early gene, to assure that the positive samples screened out by the proposed model can specifically block the degradation of hA3G caused by Vif.
Screening Experiment for Up-Regulation Activity to hA3G
The cells are picked up and cultured a culture bottle. When the cells grow full of the culture bottle, old culture medium is discarded and the cells are digested with digestion medium. When the cells turn round, the digestion medium is discarded and the culture medium is added in at once, the bottom of the bottle is gently blown with a pipette to make the cells disengage the bottle bottom and disperse into single cell suspension. After counting the cells using blood cell counting chamber, the cell suspension is inoculated into a culture dish for transfection. The medium containing the plasmid to be transfected and the transfection reagents is gently mixed up and incubated at room temperature. The medium is then added into the supernatant of the cell culture and cultured for a certain period of time. The old culture medium is then sucked out, the cells are digested with digestive medium, the digestive medium is subsequently discarded and culture medium is immediately added. The medium is gently blown to disperse the cells into single cell suspension. After counting the cells using blood cell counting chamber, the cells are ready for inoculation.
Samples of compounds[…]Pure tested compounds are dissolved in DMSO, the solution is diluted with equal proportional distilled water. The diluent is used to test the cell systems.
Sample solution of different concentration is added into the supernatant of a cell culture. After the cells are continuously cultured, old culture medium is sucked out and the cells are blown with PBS buffer until the cells completely disengage from the culture bottle.
The fluorescence intensity values of the cell suspension with test compound samples, positive control samples and negative control samples are respectively measured with fluorometer, the excitation wavelength is 485 nm and the detection wavelength 520 nm. Averages of duplicated measurements are taken as the results.
The measured fluorescence intensity values of the negative control samples (blink sample) subtracted from those of test compound samples, the results are taken as YFP fluorescence of different groups. Relative fluorescence intensity=fluorescence intensity of a test sample group/fluorescence intensity of the positive control group×100% Inhibition rate of degradation=(test sample group−negative control group)/(positive control group−negative control group)×100%

HIV-1 = HIV-1 P24 antigen in supernatant 4 days (96 h) after addition of compounds
Method: The inhibitory activities of the compounds proposed in this invention to HIV-1 were measured using HIV-1 P24 antigen kit.
DMSO solutions of samples of test compounds listed in Table 2 diluted to 8 different concentrations and the solution of the positive control AZT (azidothymidine, 0.15 ng/ml) are respectively added into 96 well plates, duplications are set for each of the dilutions, and negative control samples are also made. Aliquots of 100 μl 2×10^5 cell/ml suspension are inoculated onto the 96 well cell culture plates and cultured in an incubator under a condition of 37° C., 5% CO2 and saturated humidity. The pathologic changes of the cells are observed every day. The HIV-1 P24 antigen contents in supernatant cells are measured in 4 days (96 h) after addition of the test compounds according to the operation procedure provided by the HIV-1 P24 antigen kit.

T1 sequence (P69723 whole entry, the tested form may be a part): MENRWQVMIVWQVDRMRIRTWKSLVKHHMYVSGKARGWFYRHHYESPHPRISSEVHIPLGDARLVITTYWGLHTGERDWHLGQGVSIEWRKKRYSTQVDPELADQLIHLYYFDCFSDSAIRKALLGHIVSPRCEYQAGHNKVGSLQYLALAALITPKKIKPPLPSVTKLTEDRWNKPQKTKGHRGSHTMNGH
T1 sequence (Q9HC16 whole entry, the tested form may be a part): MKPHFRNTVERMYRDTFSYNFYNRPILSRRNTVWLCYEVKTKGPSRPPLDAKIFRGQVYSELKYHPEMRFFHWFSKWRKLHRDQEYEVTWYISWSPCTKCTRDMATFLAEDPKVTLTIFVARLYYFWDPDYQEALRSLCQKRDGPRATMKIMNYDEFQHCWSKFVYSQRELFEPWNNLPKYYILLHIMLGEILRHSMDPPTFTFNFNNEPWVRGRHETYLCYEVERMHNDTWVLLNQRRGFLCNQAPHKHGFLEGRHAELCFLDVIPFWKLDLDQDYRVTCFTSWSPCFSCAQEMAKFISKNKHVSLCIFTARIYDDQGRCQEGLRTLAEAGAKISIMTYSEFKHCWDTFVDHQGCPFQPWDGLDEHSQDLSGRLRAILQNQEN

COc1ccc(C(=O)Oc2cc(OC)c(OC)c(OC)c2)cc1N [Compound 352, 3′,4′,5′-trimethoxyphenyl 3-amino-4-methoxybenzoate]
hA3G up-regulation activity (%) [1]: 37.0%
inhibitory activity to HIV-1, IC50 (HIV-1): 0.0554 µg/mL
